What was measured:
SARS-CoV-2 3CLpro = SARS-CoV-2 3CLpro (Severe acute respiratory syndrome coronavirus 2, UniProt P0DTD1); assay: FRET based protease assay, SARS-CoV-2 3CL; assay type: biochemical, SARS-CoV-2 (strain BetaCoV/Wuhan/WIV04/2019)
MERS-CoV 3CLpro = MERS-CoV 3CLpro (Middle East respiratory syndrome-related coronavirus, UniProt K9N638); assay: biochemical; settings: MERS IC50, 75 nM MERS-CoV 3CLpro, 6 μM peptide 1 substrate, 25° C., 1.5 hrs, pH 7.5
Chain of MERS-CoV 3CLpro (K9N638 3248-3553 limits assumed): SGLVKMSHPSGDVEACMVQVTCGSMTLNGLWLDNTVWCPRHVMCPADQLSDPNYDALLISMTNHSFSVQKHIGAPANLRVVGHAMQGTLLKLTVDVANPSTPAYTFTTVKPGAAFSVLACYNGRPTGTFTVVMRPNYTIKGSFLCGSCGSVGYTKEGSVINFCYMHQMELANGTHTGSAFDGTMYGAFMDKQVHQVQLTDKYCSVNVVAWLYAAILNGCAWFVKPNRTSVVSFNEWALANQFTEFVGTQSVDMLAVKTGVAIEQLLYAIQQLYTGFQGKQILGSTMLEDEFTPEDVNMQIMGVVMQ

| SMILES | IC50 (SARS-CoV-2 3CLpro) [nM] | IC50 (MERS-CoV 3CLpro) [nM] |
| --- | --- | --- |
| CCO[C@@H]1C[C@H]2C(=O)N[C@H](C#N)C[C@@H]3C(=O)NC[C@@H]3CCCC[C@H](NC(=O)OC(C)(C)C)C(=O)N2C1 [Example 144] | < 100 | 1000 to 20000 |
| CC1(C)[C@@H]2[C@H]3C(=O)N[C@H](C#N)C[C@@H]4C(=O)NC[C@@H]4CCCC[C@H](NC(=O)C4CC(F)(F)C4)C(=O)N3C[C@@H]21 [Example 62] | < 100 | < 100 |
| CC(C)C[C@@H]1NC(=O)CCCCCC[C@@H]2CNC(=O)[C@@H]2C[C@@H](C=O)NC1=O [Example 46] | 1000 to 20000 | 1000 to 20000 |
| CC(C)C[C@@H]1NC(=O)[C@@H](Cc2cccc(C(F)(F)F)c2)CCCC[C@H]2CNC(=O)[C@H]2C[C@@H](C#N)NC1=O [Example 40] | 1000 to 20000 | 1000 to 20000 |
| CC(C)C[C@@H]1NC(=O)[C@@H](NC(=O)OC(C)(C)C)CCCC[C@H]2CNC(=O)[C@H]2C[C@@H](C#N)NC1=O [Example 56] | 100 to 1000 | 100 to 1000 |
| CC1(C)[C@@H]2[C@H]3C(=O)N[C@H](C#N)C[C@@H]4C(=O)NC[C@@H]4CCCC[C@H](NS(=O)(=O)C4CCC4)C(=O)N3C[C@@H]21 [Example 160] | < 100 | < 100 |
| CC(C)C[C@@H]1NC(=O)[C@@H](C2CCCC2)CCCC[C@H]2CNC(=O)[C@H]2C[C@@H](C#N)NC1=O [Example 41] | > 20000 | – |
| CC(C)C[C@@H]1NC(=O)CCCCCC[C@@H]2CNCC(=O)[C@H]2C[C@@H](C=O)NC1=O [Example 51] | 1000 to 20000 | > 20000 |
| CC1(C)[C@@H]2[C@H]3C(=O)N[C@H](C#N)C[C@@H]4C(=O)NC[C@@H]4CCCC[C@H](NC(=O)C(C)(C)C(F)(F)F)C(=O)N3C[C@@H]21 [Example 141] | < 100 | < 100 |
| CC(C)C[C@@H]1NC(=O)[C@@H](Cc2ccccc2)CCCCC[C@H]2CNC(=O)[C@H]2C[C@@H](C#N)NC1=O [Example 50] | 1000 to 20000 | 1000 to 20000 |
| N#C[C@@H]1C[C@@H]2C(=O)NCC[C@@H]2CCCC[C@H](NC(=O)OC2CCCC2)C(=O)N2C[C@@H]3CCC[C@@H]3[C@H]2C(=O)N1 [Example 93] | < 100 | 100 to 1000 |
| CC(C)(C)C[C@@H]1NC(=O)[C@@H](NC(=O)C(C)(C)C)CCCC[C@H]2CNC(=O)[C@H]2C[C@@H](C#N)NC1=O [Example 53] | < 100 | 100 to 1000 |
| CC(C)(C)CC(=O)N[C@H]1CCCC[C@H]2CNC(=O)[C@H]2C[C@@H](C#N)NC(=O)[C@@H]2[C@@H]3[C@H](CN2C1=O)C3(C)C [Example 73] | < 100 | < 100 |
| CN1C[C@@H]2CCCC[C@H](NC(=O)OC(C)(C)C)C(=O)N3C[C@H]4[C@@H]([C@H]3C(=O)N[C@H](C#N)C[C@@H]2C1=O)C4(C)C [Example 140] | 100 to 1000 | 100 to 1000 |
| N#C[C@@H]1C[C@@H]2C(=O)NC[C@@H]2CCCC[C@H](NC(=O)OC2CCCC2)C(=O)N2C[C@@H]3CCC[C@@H]3[C@H]2C(=O)N1 [Example 94] | < 100 | < 100 |
| CC(C)C[C@@H]1NC(=O)[C@@H](Cc2ccccc2)CCCC[C@H]2CNC(=O)[C@H]2C[C@@H](C=O)NC1=O [Example 36] | < 100 | 100 to 1000 |
| CC1(C)[C@@H]2[C@H]3C(=O)N[C@H](C#N)C[C@@H]4C(=O)NCC[C@@H]4CCCC[C@H](NC(=O)C45CC(C(F)(F)F)(C4)C5)C(=O)N3C[C@@H]21 [Example 135] | 100 to 1000 | < 100 |
| CC(C)C[C@@H]1NC(=O)[C@@H](Cc2ccccc2)CCCC[C@H]2CNC(=O)[C@H]2C[C@@H](C#N)NC1=O [Example 39] | 100 to 1000 | 1000 to 20000 |
| CC(C)(C)C(=O)N[C@H]1CC/C=C/[C@H]2CNC(=O)[C@H]2C[C@@H](C#N)NC(=O)[C@@H]2[C@H]3CCC[C@H]3CN2C1=O [Example 86] | < 100 | 100 to 1000 |
| CC(C)(C)OC(=O)N[C@H]1CCCC[C@H]2CNC(=O)[C@H]2C[C@@H](C#N)NC(=O)[C@@H]2CC3(CC3)CN2C1=O [Example 105] | 100 to 1000 | 100 to 1000 |
| CC1(C)[C@@H]2[C@H]3C(=O)N[C@H](C#N)C[C@@H]4C(=O)NC[C@@H]4CCCC[C@H](NC(=O)OC4(C(F)(F)F)CCC4)C(=O)N3C[C@@H]21 [Example 152] | < 100 | < 100 |
| CC(C)C[C@@H]1NC(=O)[C@@H](Cc2ccccc2)CCCCC[C@@H]2CNC(=O)[C@@H]2C[C@@H](C#N)NC1=O [Example 49] | > 20000 | > 20000 |
| CC(C)C[C@@H]1NC(=O)[C@@H](Cc2ccccc2)CCC[C@H]2CNC(=O)[C@@H]2C[C@@H](C#N)NC1=O [Example 27] | 1000 to 20000 | 1000 to 20000 |
| CC(C)(C)C(=O)N[C@H]1CC/C=C/[C@H]2CNC(=O)[C@H]2C[C@@H](C#N)NC(=O)[C@@H]2[C@@H]3[C@H](CN2C1=O)C3(C)C [Example 61] | < 100 | < 100 |
| CC(C)(C)C(=O)N[C@H]1CCCC[C@H]2CCNC(=O)[C@@H]2C[C@@H](C#N)NC(=O)[C@@H]2[C@@H]3[C@H](CN2C1=O)C3(C)C [Example 65] | < 100 | 100 to 1000 |

| SMILES | IC50 (SARS-CoV-2 3CLpro) [nM] | IC50 (MERS-CoV 3CLpro) [nM] |
| --- | --- | --- |
| CC(C)C[C@@H]1NC(=O)[C@@H](Cc2ccccc2)CCC[C@@H]2CNC(=O)[C@@H]2C[C@@H](C=O)NC1=O [Example 9] | 100 to 1000 | 1000 to 20000 |
| CC(C)C[C@@H]1NC(=O)CCCCC[C@@H]2CCNC(=O)[C@H]2C[C@@H](C=O)NC1=O [Example 33] | > 20000 | > 20000 |
| CC(C)(C)OC(=O)N[C@H]1CCCC[C@H]2CNC(=O)[C@H]2C[C@@H](C#N)NC(=O)[C@@H]2[C@@H]3[C@H](CN2C1=O)C3(C)C [Example 72] | < 100 | < 100 |
| CC(C)(C)COC(=O)N[C@H]1CCCC[C@H]2CNC(=O)[C@H]2C[C@@H](C#N)NC(=O)[C@@H]2[C@@H]3[C@H](CN2C1=O)C3(C)C [Example 106] | < 100 | 100 to 1000 |
| CC1(C)[C@@H]2[C@H]3C(=O)N[C@H](C#N)C[C@@H]4C(=O)NC[C@@H]4CCCC[C@H](NC(=O)CC4CC(F)(F)C4)C(=O)N3C[C@@H]21 [Example 89] | < 100 | 100 to 1000 |
| CC(C)(F)C[C@@H]1NC(=O)[C@@H](NC(=O)OC(C)(C)C)CCCC[C@H]2CNC(=O)[C@H]2C[C@@H](C#N)NC1=O [Example 138] | 100 to 1000 | 100 to 1000 |
| CC1(C)[C@@H]2[C@H]3C(=O)N[C@H](C#N)C[C@@H]4C(=O)NC[C@@H]4CCCC[C@H](NS(=O)(=O)C4(C)CC4)C(=O)N3C[C@@H]21 [Example 159] | < 100 | < 100 |
| CC(C)C[C@@H]1NC(=O)CCCC[C@H]2CNC(=O)[C@@H]2C[C@@H](C#N)NC1=O [Example 24] | 1000 to 20000 | 1000 to 20000 |
| CC(C)C[C@@H]1NC(=O)CCCCC[C@H]2CNC(=O)[C@H]2C[C@@H](C=O)NC1=O [Example 30] | 100 to 1000 | 1000 to 20000 |
| CC1(C)[C@@H]2[C@H]3C(=O)N[C@H](C#N)C[C@@H]4C(=O)NC[C@@H]4CCCC[C@H](NS(=O)(=O)c4ccc(F)cc4F)C(=O)N3C[C@@H]21 [Example 157] | < 100 | < 100 |
| CC1(C(=O)N[C@H]2CCCC[C@H]3CNC(=O)[C@H]3C[C@@H](C#N)NC(=O)[C@@H]3[C@@H]4[C@H](CN3C2=O)C4(C)C)CCC1 [Example 118] | < 100 | 100 to 1000 |
| CC1(C)[C@@H]2[C@H]3C(=O)N[C@H](C#N)C[C@@H]4C(=O)NC[C@@H]4CCCC[C@H](Nc4ccnc(C(F)(F)F)n4)C(=O)N3C[C@@H]21 [Example 164] | < 100 | 100 to 1000 |
| CC(C)(C)OC(=O)N[C@@H]1CCCC[C@H]2CNC(=O)[C@H]2C[C@@H](C#N)NC(=O)[C@@H]2[C@@H]3[C@H](CN2C1=O)C3(C)C [Example 128] | > 20000 | > 20000 |
| CC(C)(C)OC(=O)N[C@H]1CCCC[C@H]2CNC(=O)[C@H]2C[C@@H](C#N)NC(=O)[C@@H]2[C@H]3CC[C@H](CC3)N2C1=O [Example 111] | 100 to 1000 | 100 to 1000 |
| CC1(C)[C@@H]2[C@H]3C(=O)N[C@H](C#N)C[C@@H]4C(=O)NC[C@@H]4CCCC[C@H](N)C(=O)N3C[C@@H]21 [Example 161] | 100 to 1000 | 1000 to 20000 |
| CC(C)(C)OC(=O)N[C@H]1CCCC[C@H]2CCNC(=O)[C@H]2C[C@@H](C#N)NC(=O)[C@@H]2[C@@H]3[C@H](CN2C1=O)C3(C)C [Example 110] | < 100 | 100 to 1000 |
| Cc1cc(C(=O)N[C@H]2CCCC[C@H]3CNC(=O)[C@H]3C[C@@H](C#N)NC(=O)[C@@H]3[C@@H]4[C@H](CN3C2=O)C4(C)C)on1 [Example 109] | < 100 | < 100 |
| CC(C)C[C@@H]1NC(=O)[C@H](Cc2ccccc2)CCC[C@H]2CNC(=O)[C@@H]2C[C@@H](C=O)NC1=O [Example 21] | < 100 | 100 to 1000 |
| CC1(C)[C@@H]2[C@H]3C(=O)N[C@H](C#N)C[C@@H]4C(=O)NC[C@@H]4CCCC[C@H](NC(=O)c4ccc(F)c(C(F)(F)F)c4)C(=O)N3C[C@@H]21 [Example 116] | < 100 | < 100 |
| N#C[C@@H]1C[C@@H]2C(=O)NC[C@@H]2/C=C/CC[C@H](NC(=O)C(F)(F)F)C(=O)N2C[C@@H]3CCC[C@@H]3[C@H]2C(=O)N1 [Example 101] | < 100 | 100 to 1000 |
| CC(C)(C)NC(=O)[C@@H]1CCCC[C@H]2CNC(=O)[C@H]2C[C@@H](C#N)NC(=O)[C@@H]2[C@@H]3[C@H](CN2C1=O)C3(C)C [Example 166] | 1000 to 20000 | > 20000 |
| CC(C)C[C@@H]1NC(=O)[C@@H](Cc2ccccc2)CCC[C@H]2CNC(=O)[C@@H]2C[C@@H](C=O)NC1=O [Example 10] | – | 1000 to 20000 |
| CC(C)(C)OC(=O)N[C@H]1CCCC[C@H]2CCNC(=O)[C@H]2C[C@@H](C#N)NC(=O)[C@@H]2[C@@H]3[C@H](CN2C1=O)C3(C)C [Example 96] | – | < 100 |
| CC(C)C[C@@H]1NC(=O)[C@@H](Cc2ccccc2)CCCC[C@@H]2CNC(=O)[C@@H]2C[C@@H](C=O)NC1=O [Example 35] | 1000 to 20000 | – |

From US20260325540A1 (priority 2023, published 2026)
